Source: patent publication US7879342B2, “Vaccine adjuvant and making and using the same” (Univ. of Georgia Research Foundation, Inc., priority 2004, dated 2011)

System: Eimeria tenella
Test: Protective immunity against Eimeria tenella challenge after in ovo treatment and live coccidiosis vaccine
Type: in vivo, Broiler chicks
Parameters: key to Mean Cecal Score: cecal lesion score per Johnson & Reid (1970); Mean Gain: unit not given here
Conditions: challenged at 28 days
Text: A laboratory strain of Eimeria tenella was used as live coccidiosis vaccine (1000 oocysts per bird), and was given by individual oral gavage to day-old chicks. At 28 days of age, each bird was challenged by inoculation of virulent cecal coccidia (a field isolate of E. tenella with a challenge dose of 100,000 oocysts per bird) or kept as unchallenged controls. Six days post-challenge, birds were euthanized for necropsy and lesion score (see, e.g., Johnson & Reid, 1970, Exper. Parasitol. 28:30-36). Weight gains were calculated. […] Partial protection is not uncommon with coccidiosis vaccines administered in this way in short term challenge experiments. […]

[1] = E10 (10 IU) in ovo, Table 2 second set
[2] = E10 (10 IU) in ovo, Table 2 third set
[3] = E20 (20 IU) in ovo, Table 2 second set
[4] = E20 (20 IU) in ovo, Table 2 third set
[5] = E30 (30 IU) in ovo, Table 2 second set
[6] = E30 (30 IU) in ovo, Table 2 third set

In the case of vitamin E, the “Mean Cecal Score” value [1] was 1.53, the “Mean Gain” value [1] was 361 and the “Mean Cecal Score” value [2] was 1.46. The “Mean Gain” value [2] was 438, the “Mean Cecal Score” value [3] was 1.73 and the “Mean Gain” value [3] was 357. For the same substance, the “Mean Cecal Score” value [4] was 1.21, the “Mean Gain” value [4] was 322 and the “Mean Cecal Score” value [5] was 1.55. The “Mean Gain” value [5] was 388, the “Mean Cecal Score” value [6] was 0.5 and the “Mean Gain” value [6] was 454.
